Laboratory results from US20170249408A1, “Antiperspirant and Deodorant Compositions Comprising Malodor Reduction Compositions” (The Procter & Gamble Company, priority 2015, published 2017).

Assay: Blocker Index (BI), expert graders, isovaleric acid malodorous swatch
Parameters: key: Blocker Index, expert-graded scale 0 to 3 (0 = clean swatch anchor)
Source text: Blocker materials suitable for use in consumer products of the present invention are chosen for their ability to decrease malodor, while not interfering with perception of a fragrance. Material selection is done by assigning two indices to a test sample material from two reference scales in order to rank odor strengths. The two reference scales are the Fragrance Fidelity Index (FFI) scale and the Blocker Index (BI) scale. The FFI ranks the ability of the test sample material to impart a perceivable odor which could cause interference when combined with another fragrance and the BI ranks the ability of the test sample material to reduce malodor perception. The two methods for assigning the indices to a test sample on the FFI and the BI reference scales are given below.
The first step in the method for assigning a BI to a test sample material on the BI reference scale is to create the BI reference swatches. […] Fabric swatches for this test are white knit polycotton (4 inch×4 inch) swatches from EMC ordered as PC 50/50. The supplier is instructed to strip the swatches first, stripping involves washing twice with a fragrance-free detergent and rinsing three times.
The BI scale contains one clean swatch with no malodor applied. […] These solutions are pipetted to the middle of the swatches. […] After drying for 30 minutes in a vented hood, the swatches are wrapped in aluminum foil to prevent odor contamination to the treated swatch. A clean untreated swatch is also included as the lowest anchor point of reference for malodor strength on the BI scale. The BI reference scale swatches should be used within 0.5 to 12 hours and discarded after 12 hours. The swatches are used as scale anchor points when graders evaluate a test sample(s) and are assigned a Blocker Index (BI) as show in Table 12.
The perfumer/expert grader is asked to rank order swatches according to a scale between 0 and 3.
To evaluate the BI, the test material is applied to a malodorous swatch to determine how well the test material blocks the malodor. […] After drying the malodorous swatch a known concentration of test material solution, between 1 ppm and 100 ppm is pipetted onto the malodorous swatch. […] It is sometimes necessary to evaluate several levels of the test material between about 1 and about 100 ppm to determine the BI.
At least two perfumers/expert graders are used to assign the BI to the test sample. […] The test sample swatch is assigned a BI at or between numbers on the BI in table.

[1] = test material Conc 10 ppm on isovaleric acid swatch
[2] = test material Conc 50 ppm on isovaleric acid swatch
[3] = Conc 10 ppm of test material on isovaleric acid malodorous swatch
[4] = Conc 50 ppm of test material on isovaleric acid malodorous swatch

SMILES | BI [1] | BI [2] | BI [3] | BI [4]
CC1(C)CCc2ccc(CCC=O)cc21 [Material 261, 3-(3,3-dimethyl-2,3-dihydro-1H-inden-5-yl)propanal] | 1.5 | 2.7 | – | –
CC(=O)OCCCCCCC(C)C [Material 204] | – | – | 2.0 | 2.7
CC(C)(C)C1CCCCC1 [4-tert-butyl cyclohexane] | – | – | 2.0 | 2.0
COC(=O)OC1CC/C=C\CCC1 (stereo not shown) [Material 1139] | – | – | 2.0 | 2.7
C=C1CCC2OC2(C)CCC2C1CC2(C)C (stereo not shown) [Material 1148] | – | – | – | 2.3
CCCCCCCCCCCCO [Material 174] | – | – | – | 2.3
C=CC(C)=CCC=C(C)C [Material 524] | – | – | – | 2.8
CCCCCCCCCCCCCCCC(=O)OC [Material 109] | – | – | 2.0 | –
CC1CCC2(C(C)C)CC(C)OC2C1 (stereo not shown) [4,8-dimethyl-1-(methylethyl)-7-oxybiciclo[4.3.0]nonane] | 2.0 | 2.2 | – | –
CCOC(=O)OC1C(C)CCC(C)C1C (stereo not shown) [Material 1005] | – | – | – | 2.6
CC1(C)CCc2ccc(CCC=O)cc21 [Material 261] | – | – | 1.8 | 1.3
CCCCCCCCCCCC(=O)OCC [Material 391] | – | – | – | 2.2
CCCCCCCCCCCO [Undecanol] | – | – | – | 2.3
CC1(C)C2CCC3(C2)C1C(=O)CCC3(C)C (stereo not shown) [Material 1149] | – | – | 1.5 | 2.3
CCC(O)COC1CCCCC1C(C)(C)C (stereo not shown) [Material 677] | – | – | 2.3 | 2.0
CC(=O)OC1CC2CC1C1CC=CC21 (stereo not shown) [Material 281] | – | – | 2.0 | 2.0
CCC(=O)OC1CC2C3C=CCC3C1C2(C)C (stereo not shown) [8,8-dimethyl-3a,4,5,6,7,7a-hexahydro-1H-4,7-methanoinden-6-yl propionate] | 1.5 | 2.2 | – | –
O=C1CCC2CCCCC2O1 (stereo not shown) [3,4,4a,5,6,7,8,8a-octahydrochromen-2-one] | – | – | 2.0 | 2.0
CC(CCO)CCc1ccccc1 (stereo not shown) [Material 962] | – | – | 2.3 | 1.7
